# Measured values taken from patent US20260325485A1, “COMPOSITIONS AND METHODS FOR TREATING PANCREATITIS” (The United States Government as represented by the …, priority 2022, published 2026).
# Assays:
# [1] = system: cerulein pancreatitis (CER-AP); experiment: Drug treatment of cerulein pancreatitis (CER-AP) in WT mice; format: in vivo, mouse; conditions: WT mice treated with simvastatin or BemA
# Description: (§1) FIGS. 10A-10N show deranged cholesterol metabolism causes acinar cell damage, while its normalization ameliorates experimental pancreatitis. (A-D) Cholesterol content and trypsin activity were measured (per mg protein) in WT mouse acinar cells incubated for 1 hour without and with methyl-β-cyclodextrin (MCD; 10 mM) or cholesterol-loaded MCD (MCD-Chol; 200 μg/mL), in the presence or absence of 100 nM CCK. Values are expressed relative to those in cells without MCD/MCD-Chol. (E-J) WT mice received daily i.p. injections of the LXR agonist T0901317 (T09), simvastatin (Sim; 20 mg/kg each), or vehicle. On day 4, mice were subjected to CER-AP and pancreata collected for analyses (see also FIG. 20). Cholesterol content (E), trypsin activity (F), and pancreas histopathology (H&E staining; G) were measured. (H, I, L, and N) IB analysis of markers/mediators of autophagy (LC3, p62), ER stress (CHOP, GRP-78), and mitophagy (Parkin). Ub, ubiquitylated proteins. (J) Mitochondrial fragmentation was assessed by immunostaining for Tom20, as detailed in FIG. 7G. (K and L) Mouse acinar cells were treated for 16 hours with LDL (30 μg/mL) or the combination of LDL and 10 μM U18666A. (M and N) Mice received injections of U18666A as detailed in FIG. 9B. Pancreas histopathology (H&E staining; M) and levels of autophagy markers/mediators (N) were measured. Each symbol in A-F and I represents an individual mouse or cell preparation. Values are mean±SEM from 3 to 7 mice or cell preparations per condition. ^§ P<0.05, ^§§ P<0.01 vs. control cells (without MCD/MCD-Chol). ***P<0.001 vs. saline-treated mice. ^#P<0.05, ^##P<0.01, ^###P<0.001 vs. CER-AP alone (no inhibitors). Significance was determined by 2-tailed Student's t test (A-D) or 1-way ANOVA followed by Tukey's multiple comparison test (E, F, and I). Scale bars: 10 μm.
# FIGS. 20A-20C show simvastatin improves cerulein pancreatitis. Mice received daily i.p. injections of simvastatin (Sim; 20 mg/kg) or vehicle (see FIG. 10), and on day 4 were subjected to cerulein pancreatitis (CER-AP). (A) Pancreas histopathology (H&E staining; scale: 10 μm). (B) IB analysis of markers/mediators of autophagy (LC3, p62), ER stress (CHOP), and the MLN64/STARD3 protein mediating cholesterol transfer from LE/Ly to mitochondria. Each IB lane represents an individual mouse; ERK1/2 is the loading control. […] Ub, ubiquitylated proteins. (C) Pancreatitis responses. Values are mean±SEM from 7-13 mice for each condition. ***p<0.001 vs saline control. ^###p<0.001 vs CER-AP alone (no simvastatin). Significance was determined by 1-way ANOVA followed by Tukey's multiple comparisons test.
# (§2) FIGS. 25A-25C show reducing cholesterol overload greatly ameliorates experimental pancreatitis. CER-AP responses were measured in (A) AclyAac or (C) WT mice treated with simvastatin or bempedoic acid (BemA). (B) Acinar cells were transfected with ACLA (or mock) siRNA and subjected to ex-vivo CCK-AP. Each symbol represents an individual mouse or cell preparation. Values are mean±SE. **p<0.01, ***p<0.001 vs saline treated control mice (or mock transfection); #p<0.05, ##p<0.01, ###p<0.001 vs CER/CCK-AP in control mice (i.e. without inhibitors) or cells.
# Cerulein-induced (CER-AP) and L-arginine induced (Arg-AP) acute pancreatitis models were performed in 12-week-old C57BL/6 mice that received 7 hourly i.p. injections of 50 μg/kg cerulein or 3 hourly i.p. injections of 3.3 g/kg Arg; controls received physiologic saline injections. Mice were euthanized for analyses 7 hours after the first cerulein or 24 hours after the first Arg injection. Choline deficient, ethionine-supplemented (CDE) pancreatitis was induced in young (~5-weeks old) female mice fed either CDE or control diet. Mice were euthanized 72 hours after the diet initiation. These models have been described in detail (1-7).
# 12-week-old WT mice were subjected for 4 consecutive days to daily i.p. injections of 20 mg/kg simvastatin (8,9) or 20 mg/kg T0901317 (10); or 10 mg/kg U18666A for 15 days (11). […]
# [2] = system: muscles; conditions: prodrug activated in the liver; cited from earlier work
# [3] = system: CER/CCK-AP; experiment: Effect of simvastatin and BemA in CER/CCK-AP (mouse and ex-vivo model)
# Description: as §2
# (§3) FIGS. 26A-26D preventing cholesterol overload ameliorates ex-vivo pancreatitis. Mouse pancreatic acinar cells were incubated (A, B) with simvastatin (4 μM, 3 h) or (C, D) cholesterol chelator, methyl-β-cyclodextrin (MCD; 10 mM, 1 h) and then subjected to CCK-AP for 1 (D) or 3 h (A, B). Cholesterol content (A, C) necrosis (B), and trypsin activity (D) were measured. Each symbol represents an individual cell preparation. Values are mean±SEM*p<0/05, **p<0.01 vs control; #p<0.05 ##p<0.01; vs CCK, no inhibitor.
# Cholesterol metabolism is disrupted in pancreatitis as a result of lysosomal/autophagy dysfunction. Preventing acinar cell cholesterol overload with simvastatin alleviates AP in one experimental model (CER-AP). As discussed above, lysosomal/autophagy dysfunction is associated with both experimental and human pancreatitis.^6, 7, 9, 13, 17 However, until a recent publication^13 there was very little known on cholesterol metabolism in healthy pancreas, its changes in experimental and human pancreatitis, and role in disease severity. Further, effects of statins and other cholesterol-lowering drugs in pancreas, and the underlying mechanisms, have not been explored. […] This, in turn, stimulates a compensatory increase in cholesterol synthesis, further exacerbating cholesterol overload. It was further shown^13 that inhibition of cholesterol synthesis with simvastatin reduced acinar cell cholesterol overload and the severity of pancreatitis induced with supramaximal cerulein (CER), an ortholog of the hormone cholecystokinin-8 (CCK). The findings^13 reveal a previously unrecognized pathogenic role of cholesterol dysregulation in pancreatitis and indicate normalizing cholesterol metabolism as a novel therapeutic approach for disease treatment.
# In summary, the published^13 and current data (FIGS. 23-26) reveal that disruption of acinar cell cholesterol metabolism is a common feature in models of experimental pancreatitis and also prominent in human disease. The key manifestation of cholesterol dyshomeostasis in pancreatitis is acinar cell cholesterol overload. […]
# [4] = system: pancreas; conditions: pharmacologic autophagy enhancer; cited from earlier work
# [5] = system: trypsin; experiment: Trypsin activity in Gnptab−/− acinar cells; format: cell-based, mouse; conditions: Gnptab−/− acinar cells, cholesterol chelator MCD
# Description: FIGS. 6A-6R show mechanisms mediating increased trypsin activity in Gnptab−/− pancreas. Trypsin activity and its regulation were analyzed in pancreatic (A, C, and D) tissue, (B and P-R) acinar cells, (E-H and O) lobules, and (I-N) subcellular fractions. In B, acinar cells were incubated for 3 hours without and with 20 nM BafAl or 50 μM CatB inhibitor CA-074Me; in P-R, with the cholesterol chelator methyl-β-cyclodextrin (MCD) at the indicated concentrations. In E-H, pancreatic lobules were double stained for TAP and LC3 or LAMP2; in O, for TAP and filipin. Quantitative colocalization analysis was done as detailed in FIG. 2. Each symbol in A, B, J-N, Q, and R represents an individual mouse or cell preparation (n=3-8 per condition). Each symbol in D, G, and H corresponds to 20 to 30 cells in a different field (n=9-20 fields from 3 WT and 3 KO mice or lobule preparations). Values are mean±SEM. **P<0.01, ***P<0.001 vs. WT tissue/lobules (A, G, and H) or corresponding WT subcellular fraction (K and M). ##P<0.01 vs. no inhibitors (B) or MCD (Q and R). ††P<0.01, †††P<0.001 vs. the other two fractions (L and N). Significance was determined by 2-tailed Student's t test (A, G, and H) or 1-way ANOVA followed by Tukey's multiple comparison test (B, K-N, Q, and R). Scale bars: 10 μm.
# (§4) Activities of cathepsin (Cat) B and L, caspase-3, trypsin, and lysosomal acid lipase (LAL) were measured in pancreatic tissue or cell homogenates and subcellular fractions with fluorogenic assays using substrates specific for CatB (Z-Arg-Arg-AMC), CatL (Z-Phe-Arg-AMC), caspase-3-like ([…]), trypsin (Boc-Gln-Ala-Arg-AMC), as previously described (1-4, 6, 7); and for LAL (4-methylumbelliferyl oleate), as in (17). In measurements of CatL activity, the assay buffer also contained 50 μM CA-074me, a CatB inhibitor. LAL activity was measured in the absence and presence of the LAL inhibitor lalistat (100 μM) as the difference between these values (17).
# [6] = system: mouse pancreatic acinar cells; experiment: Ex-vivo CCK-AP in mouse pancreatic acinar cells treated with simvastatin or MCD; format: cell-based; conditions: simvastatin 4 μM, 3 h or MCD 10 mM, 1 h
# Description: as §3
# (§5) Ex vivo pancreatitis models were performed on mouse and human acinar cells, and human pancreas slices by incubation with supramaximal CCK (100 nM) or carbachol (1 mM), as described previously (80, 81).
# as §4
# (§6) Total cholesterol content was measured with Cholesterol Assay kit per manufacturer's instructions. Samples of mouse pancreas and liver, cell pellet homogenates, subcellular fractions, isolated mitochondria, and serum were diluted in the reaction buffer containing cholesterol probe and incubated at 37° C. for 1 h in the dark. To measure total cholesterol, the samples were subjected to digestion with cholesterol esterase. To measure non-esterified cholesterol, the esterase was omitted from the assay.
# [7] = system: mouse acinar cells; conditions: cited from earlier work
# [8] = system: trypsin; experiment: Trypsin activity in WT mouse acinar cells without and with CCK; format: cell-based; conditions: MCD 10 mM, 1 hour, 100 nM CCK
# Description: as §1, with “(K and L) Mouse acinar cells were treated for 16 hours with LDL (30 μg/mL) or the combination of LDL and 10 μM U18666A. (M and N) Mice received injections of U18666A as detailed in FIG. 9B.” left out, “Each symbol in A-F and I represents an individual mouse or cell preparation. Values are mean±SEM from 3 to 7 mice or cell preparations per condition. ^§ P<0.05, ^§§ P<0.01 vs. control cells (without MCD/MCD-Chol). ***P<0.001 vs. saline-treated mice. ^#P<0.05, ^##P<0.01, ^###P<0.001 vs. CER-AP alone (no inhibitors).” left out, “Scale bars: 10 μm.” left out
# [9] = system: mouse acinar cells; experiment: Total cholesterol content of mouse acinar cells (ex vivo pancreatitis models or cholesterol chelator); format: cell-based; conditions: Gnptab−/− acinar cells
# Description: FIGS. 8A-8M show derangement of cholesterol metabolism in experimental pancreatitis. Characteristics of cholesterol metabolism were measured, as detailed in FIGS. 4A-4R, in pancreas of WT mice subjected to pancreatitis induced with cerulein (CER-AP), L-arginine (Arg-AP), or CDE diet (CDE-AP) (A, B, and E-G); ex vivo pancreatitis induced in WT mouse (C and I-M) or human acinar cells (D) with 100 nM CCK (CCK-AP) or 1 mM carbachol; and isolated pancreatic mitochondria (H). (B) Cholesterol ester (CE) heatmap; each column represents an individual mouse. (F) IB analysis of the indicated proteins. (G) LAL activity was measured by a fluorogenic assay (n=6 mice per condition). (H) Cholesterol content was measured by enzymatic assay. (I-M) Filipin colocalization with indicated proteins was quantified as detailed in FIGS. 2A-2L. Each symbol in A, C-E, and H represents an individual mouse, or cell or mitochondria preparation (n=3-15 per condition). Each symbol in J, K, and M corresponds to 20-30 cells in a different field (n=10-20 fields from 3 cell preparations per condition). Values are mean±SEM. *P<0.05, **P<0.01, ***P<0.001 vs. the same parameter in control/untreated pancreas, acinar cells or isolated mitochondria. Significance was determined by 2-tailed Student's t test (B, E, H, J, K, and M) or 1-way ANOVA followed by Tukey's multiple comparison test (A, C, and D). Scale bars: 10 μm.
# Parameters of cholesterol metabolism were measured in (A, B, E, F) pancreas of mice subjected to pancreatitis induced with cerulean (CER-AP), L-arginine (Arg-AP), or combination of EtOH+palmitoleic acid (EtOH+POA); and (C) ex-vivo models on mouse and human acinar cells treated for 1 h with 100 nM CCK, […] or 500 μM TLCS. In (A), each column in CE heatmap represents an individual mouse. (B, C) Total cholesterol content was measured with cholesterol assay kit (Abcam, ab65390). […] Each symbol corresponds to 20-30 cells in each of 8 high-expression (qPCR) of proteins regulating cholesterol synthesis (4 mice/group). (B-D) Each symbol represents an individual animal or cell preparation. (A-D, F) Values are mean±SE (*p<0.05, **p<0.01, ***p<0.001 vs saline or control). Signficance was determined by 2-tailed student's t test.
# as §5, §6
# Fluorescence intensity (for cholesterol) and absorbance (for TAG) were measured in a Tecan microplate reader. Each measurement was in duplicate, and the values were normalized per mg total protein in the sample.
molecule,measurement,setting,value
"CC(C)(CCCCCC(O)CCCCCC(C)(C)C(=O)O)C(=O)O [BemA, Bempedoic acid]",cholesterol overload in CER-AP (FIG. 25C),[1],decreased
same,inflammation in CER-AP (FIG. 25C),[1],ameliorated
same,necrosis in CER-AP (FIG. 25C),[1],ameliorated
same,trypsin activity in CER-AP (FIG. 25C),[1],ameliorated
same,myotoxicity,[2],minimal
same,"cholesterol overload, CER/CCK-AP",[3],prevented
same,"disease severity, CER/CCK-AP",[3],reduced
OC[C@H]1O[C@H](O[C@H]2O[C@H](CO)[C@@H](O)[C@H](O)[C@H]2O)[C@H](O)[C@@H](O)[C@@H]1O [trehalose],pancreas injury in AP models,[4],largely prevented
methyl-β-cyclodextrin [MCD],"Trypsin activity, KO cells, MCD",[5],greatly decreased
same,cholesterol overload in ex-vivo CCK-AP,[6],Reducing
same,extent of necrosis in ex-vivo CCK-AP,[6],greatly decreased
same,trypsinogen activation in ex-vivo CCK-AP,[6],greatly decreased
same,usual cholesterol-reducing MCD concentration,[7],1 to 5 mM
same,CCK-induced trypsinogen activation,[8],reduced
same,Resistance of Gnptab−/− acinar cells to MCD,[9],highly resistant
same,MCD concentration at which cholesterol-reducing effect is evident,[9]; only at this concentration,50 mM
